From publication PMC9322406, “Broad‐range metalloprotease profiling in plants uncovers immunity provided by defence‐related metalloenzyme” (The New Phytologist, 2022)

Legend:
Test in all cases: competition with DK-01 photoaffinity labelling, in-gel fluorescence
Type in all cases: biochemical
Conditions in all cases: 200 uM inhibitor preincubated, 10 uM DK-01; leaf extract; band assigned by knockout
PREP1 = target: T1, PREP1 (Arabidopsis thaliana, UniProt Q9LJL3)
T1 construct: assigned by knockout lines; locus printed At3g18170, probably a misprint for At3g19170
T1 sequence (Q9LJL3 86-1080): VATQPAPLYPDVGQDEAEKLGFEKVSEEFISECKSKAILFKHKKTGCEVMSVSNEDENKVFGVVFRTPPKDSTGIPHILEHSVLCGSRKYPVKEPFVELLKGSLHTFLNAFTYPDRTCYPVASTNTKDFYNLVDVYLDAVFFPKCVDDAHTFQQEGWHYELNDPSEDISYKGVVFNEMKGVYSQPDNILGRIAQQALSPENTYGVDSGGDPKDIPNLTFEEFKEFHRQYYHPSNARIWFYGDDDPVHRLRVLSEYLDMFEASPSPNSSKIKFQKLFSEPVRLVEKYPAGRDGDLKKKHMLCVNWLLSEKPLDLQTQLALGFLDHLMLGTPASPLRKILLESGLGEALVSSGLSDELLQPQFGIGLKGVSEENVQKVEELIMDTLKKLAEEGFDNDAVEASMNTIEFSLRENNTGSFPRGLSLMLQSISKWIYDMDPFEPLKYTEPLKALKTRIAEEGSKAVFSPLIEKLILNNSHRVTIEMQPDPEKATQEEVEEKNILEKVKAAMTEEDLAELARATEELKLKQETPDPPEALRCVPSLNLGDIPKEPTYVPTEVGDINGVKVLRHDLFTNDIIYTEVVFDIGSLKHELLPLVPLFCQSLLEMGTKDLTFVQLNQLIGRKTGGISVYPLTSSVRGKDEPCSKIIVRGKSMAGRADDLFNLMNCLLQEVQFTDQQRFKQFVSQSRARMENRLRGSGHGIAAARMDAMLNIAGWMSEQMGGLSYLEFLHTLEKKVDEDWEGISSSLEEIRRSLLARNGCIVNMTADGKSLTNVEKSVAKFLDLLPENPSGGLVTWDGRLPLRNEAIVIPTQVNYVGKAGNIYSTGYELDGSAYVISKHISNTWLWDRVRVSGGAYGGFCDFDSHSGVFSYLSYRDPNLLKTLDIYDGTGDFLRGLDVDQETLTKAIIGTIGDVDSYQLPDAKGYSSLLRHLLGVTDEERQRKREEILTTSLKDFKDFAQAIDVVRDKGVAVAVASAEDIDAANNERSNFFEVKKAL

TOP1 = target: T2, TOP1 (Arabidopsis thaliana, UniProt Q94AM1)
T2 construct: gene OOP; assigned by knockout lines
T2 sequence (Q94AM1 83-791): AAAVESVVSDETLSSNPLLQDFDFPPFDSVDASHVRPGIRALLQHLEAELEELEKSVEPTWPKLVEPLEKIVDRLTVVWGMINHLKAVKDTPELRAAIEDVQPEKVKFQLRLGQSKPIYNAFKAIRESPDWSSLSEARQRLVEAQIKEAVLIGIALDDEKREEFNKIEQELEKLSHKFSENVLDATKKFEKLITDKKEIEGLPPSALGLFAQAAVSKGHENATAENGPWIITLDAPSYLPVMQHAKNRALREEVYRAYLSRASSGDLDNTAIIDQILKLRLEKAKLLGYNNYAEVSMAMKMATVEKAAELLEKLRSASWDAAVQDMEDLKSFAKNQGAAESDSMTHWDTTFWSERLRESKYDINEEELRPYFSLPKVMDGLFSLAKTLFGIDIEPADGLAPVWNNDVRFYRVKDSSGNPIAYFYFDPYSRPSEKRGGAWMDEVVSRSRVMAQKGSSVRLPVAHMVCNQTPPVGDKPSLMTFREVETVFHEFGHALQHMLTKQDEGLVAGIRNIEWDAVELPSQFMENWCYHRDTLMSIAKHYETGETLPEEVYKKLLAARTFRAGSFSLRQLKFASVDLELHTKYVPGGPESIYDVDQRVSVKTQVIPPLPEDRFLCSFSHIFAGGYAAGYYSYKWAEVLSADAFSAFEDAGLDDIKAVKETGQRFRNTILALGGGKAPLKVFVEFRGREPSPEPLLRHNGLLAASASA

APM1 = target: T3, APM1 (Arabidopsis thaliana, UniProt Q8VZH2)
T3 construct: assigned by mutant lines
T3 sequence (Q8VZH2 1-879): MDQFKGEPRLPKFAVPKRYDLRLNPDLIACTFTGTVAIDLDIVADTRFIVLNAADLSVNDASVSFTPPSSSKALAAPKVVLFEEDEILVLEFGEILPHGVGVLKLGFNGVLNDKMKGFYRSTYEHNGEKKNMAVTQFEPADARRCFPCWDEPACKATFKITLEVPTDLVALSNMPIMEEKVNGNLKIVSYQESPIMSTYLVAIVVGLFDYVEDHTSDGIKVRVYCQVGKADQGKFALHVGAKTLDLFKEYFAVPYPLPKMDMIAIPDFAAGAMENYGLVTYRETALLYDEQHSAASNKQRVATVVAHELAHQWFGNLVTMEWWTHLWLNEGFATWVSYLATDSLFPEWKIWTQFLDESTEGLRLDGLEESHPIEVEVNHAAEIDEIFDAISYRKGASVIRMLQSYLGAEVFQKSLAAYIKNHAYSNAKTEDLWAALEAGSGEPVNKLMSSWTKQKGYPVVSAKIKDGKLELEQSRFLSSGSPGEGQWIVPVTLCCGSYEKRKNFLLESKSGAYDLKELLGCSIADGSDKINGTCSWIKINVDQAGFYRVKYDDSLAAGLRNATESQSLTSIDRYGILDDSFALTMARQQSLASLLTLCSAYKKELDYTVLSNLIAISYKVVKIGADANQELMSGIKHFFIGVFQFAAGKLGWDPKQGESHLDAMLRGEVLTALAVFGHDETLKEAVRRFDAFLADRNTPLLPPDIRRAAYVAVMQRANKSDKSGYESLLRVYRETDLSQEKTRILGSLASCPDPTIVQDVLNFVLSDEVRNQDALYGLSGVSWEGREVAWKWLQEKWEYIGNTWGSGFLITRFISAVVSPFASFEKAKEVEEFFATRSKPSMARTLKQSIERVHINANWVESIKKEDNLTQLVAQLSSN

SMILES: CCCCC[C@H](CC(=O)NO)C(=O)N[C@H](C(=O)N1CCC[C@H]1CO)C(C)C [actinonin]
- competition with DK-01 photoaffinity labelling, in-gel fluorescence (PREP1): PREP1 is actinonin/ilomastat‐sensitive
- competition with DK-01 photoaffinity labelling, in-gel fluorescence (TOP1): TOP1 labelling is actinonin‐sensitive and requires a neutral pH
- competition with DK-01 photoaffinity labelling, in-gel fluorescence (APM1): APM1 is marimastat/actinonin‐sensitive and active at pH5 and above

SMILES: CNC(=O)[C@H](Cc1c[nH]c2ccccc12)NC(=O)[C@@H](CC(=O)NO)CC(C)C [ilomastat]
- competition with DK-01 photoaffinity labelling, in-gel fluorescence (PREP1): PREP1 is actinonin/ilomastat‐sensitive

SMILES: CNC(=O)[C@@H](NC(=O)[C@H](CC(C)C)[C@H](O)C(=O)NO)C(C)(C)C [marimastat]
- competition with DK-01 photoaffinity labelling, in-gel fluorescence (APM1): APM1 is marimastat/actinonin‐sensitive and active at pH5 and above
